NC(=O)c1ccc([N+](=O)[O-])cc1
solubility (mole fraction)
Conditions	283.15 K	288.15 K	293.15 K	298.15 K	303.15 K	308.15 K	313.15 K	318.15 K	323.15 K	328.15 K
in DMF	0.037	0.0416	0.0492	0.0576	0.0691	0.0811	0.0945	0.109	0.123	0.139
in DMSO	–	–	0.0372	0.0425	0.0504	0.0613	0.0747	0.0888	0.103	0.117
in NMP	0.0418	0.0472	0.0549	0.0653	0.0775	0.0917	0.108	0.125	0.144	0.169
in acetonitrile	0.000628	0.000806	0.000994	0.00126	0.00155	0.00195	0.00232	0.0028	0.00332	0.00396
in ethanol	0.00157	0.00182	0.00231	0.00287	0.00351	0.00429	0.00513	0.00616	0.00735	0.00882
in ethyl acetate	0.00203	0.00236	0.00286	0.00376	0.00471	0.00583	0.00706	0.0086	0.0103	0.0122
in ethylene glycol	0.00356	0.00417	0.00496	0.006	0.00719	0.00873	0.0102	0.0119	0.0138	0.0164
in isobutanol	0.000751	0.000942	0.00119	0.0015	0.00187	0.00233	0.00286	0.00342	0.00403	0.00467
in isopropanol	0.00127	0.0015	0.00185	0.0023	0.00286	0.00341	0.00408	0.00492	0.00579	0.00677
in n-butanol	0.000449	0.000554	0.000712	0.000907	0.00116	0.00144	0.00176	0.00213	0.00253	0.00301
in n-propanol	0.00096	0.00119	0.00151	0.00189	0.00228	0.00276	0.00327	0.00381	0.00447	0.00533
in water	0.000322	0.000395	0.000498	0.0006	0.000754	0.000924	0.00112	0.00137	0.00161	0.00186

Source: BigSolDB 2.1
